Results as given in EP2607478A1, “Phenanthroline treated MSC” (Universiteit Twente, priority 2011, dated 2013).

System: MSCs
Assay: Whole genome expression analysis (Illumina microarray) of treated MSCs
Assay type: cell-based, Human
Experimental: MSCs were seeded in T25 flasks at 5000 cells/cm^2 and allowed to attach overnight in proliferation medium. […] After 48 hours, RNA was isolated as described above. From 500 ng of RNA, cRNA was synthesized using the Illumina TotalPrep RNA amplification Kit (Ambion), according to the manufacturer's protocol and the quality of RNA and cRNA was verified on a Bioanalyzer 2100 (Agilent). Microarrays were performed using Illumina HT-12 v4 expression Beadchips, according to the manufacturer's protocol. Briefly, 750 ng of cRNA was hybridized on the array overnight after which the array was washed and blocked. Then, by addition of streptavidin Cy-3 a fluorescent signal was developed. Arrays were scanned on an Illumina iScan reader and raw intensity values were background corrected in GenomeStudio (Illumina). Further data processing and statistical testing were performed with R and Bioconductor statistical software (www.bioconductor.org), using package lumi. Raw intensity values were transformed using variance stabilization and a quantile normalization was performed. A linear modelling approach with empirical Bayesian methods, as implemented in Limma package (54), was applied for differential expression analysis of the resulting probe-level expression values. A gene list, containing only those genes with an absolute 1.5-fold change between different treatments, was uploaded to Ingenuity Pathway Analysis (IPA) software and used for core analysis. Pathways or networks with a p-value of 0.05 were considered statistically significant.

## c1cnc2c(c1)ccc1cccnc12 [PHE, 1, 10-phenanthroline]
ProbeID ILMN_1699651
  logFC(D142_PHE - D142_BAS) IL6: -2,31
ProbeID ILMN_1699772
  logFC(D142_PHE - D142_BAS) RRAGD: 3,13
ProbeID ILMN_1699980
  logFC(D142_PHE - D142_BAS) TSPAN18: -2,03
ProbeID ILMN_1700268, PHE vs BAS
  logFC(D142_PHE - D142_BAS) QPRT: -2,59
ProbeID ILMN_1701441, PHE vs BAS
  logFC(D142_PHE - D142_BAS) LPAR1: -2,35
ProbeID ILMN_1702363, PHE vs BAS
  logFC(D142_PHE - D142_BAS) SULF1: -2,90
ProbeID ILMN_1703123
  logFC(D142_PHE - D142_BAS) AXUD1: 2,51
ProbeID ILMN_1703330
  logFC(D142_PHE - D142_BAS) FEM1C: 2,53
ProbeID ILMN_1703558
  logFC(D142_PHE - D142_BAS) FHL3: -2,34
ProbeID ILMN_1704154
  logFC(D142_PHE - D142_BAS) TNFRSF19: -2,24
ProbeID ILMN_1704446
  logFC(D142_PHE - D142_BAS) SLC6A10P: 3,23
ProbeID ILMN_1704531
  logFC(D142_PHE - D142_BAS) PTGR1: 2,56
ProbeID ILMN_1705750, PHE vs BAS
  logFC(D142_PHE - D142_BAS) TGM2: -2,98
ProbeID ILMN_1706498
  logFC(D142_PHE - D142_BAS) DSE: -2,19
ProbeID ILMN_1707124
  logFC(D142_PHE - D142_BAS) TFPI: 2,04
ProbeID ILMN_1707342
  logFC(D142_PHE - D142_BAS) LRIG1: 2,82
ProbeID ILMN_1707727
  logFC(D142_PHE - D142_BAS) ANGPTL4: 7,28
ProbeID ILMN_1708486
  logFC(D142_PHE - D142_BAS) CNN2: -2,15
ProbeID ILMN_1708672
  logFC(D142_PHE - D142_BAS) ACAT2: -2,03
ProbeID ILMN_1708934
  logFC(D142_PHE - D142_BAS) ADM: 2,48
ProbeID ILMN_1709043
  logFC(D142_PHE - D142_BAS) C9orf46: -2,08
ProbeID ILMN_1711439
  logFC(D142_PHE - D142_BAS) EMILIN1: -2,30
ProbeID ILMN_1712684
  logFC(D142_PHE - D142_BAS) FAM20C: -2,12
ProbeID ILMN_1713499
  logFC(D142_PHE - D142_BAS) WISP1: -2,11
ProbeID ILMN_1714730
  logFC(D142_PHE - D142_BAS) UBE2C: -2,16
ProbeID ILMN_1714741
  logFC(D142_PHE - D142_BAS) LOC346887: 2,46
ProbeID ILMN_1715508, PHE vs BAS
  logFC(D142_PHE - D142_BAS) NNMT: -2,62
ProbeID ILMN_1716552
  logFC(D142_PHE - D142_BAS) ENAH: -2,13
ProbeID ILMN_1716608
  logFC(D142_PHE - D142_BAS) NGF: 2,06
ProbeID ILMN_1716687
  logFC(D142_PHE - D142_BAS) TPM1: -2,28
ProbeID ILMN_1716733
  logFC(D142_PHE - D142_BAS) MYOM2: 2,05
ProbeID ILMN_1717056
  logFC(D142_PHE - D142_BAS) TXNRD1: 2,75
ProbeID ILMN_1718866
  logFC(D142_PHE - D142_BAS) C5orf46: 3,15
ProbeID ILMN_1718961
  logFC(D142_PHE - D142_BAS) BNIP3L: 2,88
ProbeID ILMN_1719392, PHE vs BAS
  logFC(D142_PHE - D142_BAS) FH: -2,67
ProbeID ILMN_1719759, PHE vs BAS
  logFC(D142_PHE - D142_BAS) TNC: -3,17
ProbeID ILMN_1720373
  logFC(D142_PHE - D142_BAS) SLC7A5: 2,69
ProbeID ILMN_1720998
  logFC(D142_PHE - D142_BAS) CA12: 2,41
ProbeID ILMN_1722532
  logFC(D142_PHE - D142_BAS) JMJD1A: 3,45
ProbeID ILMN_1723486
  logFC(D142_PHE - D142_BAS) HK2: 2,90
ProbeID ILMN_1723912
  logFC(D142_PHE - D142_BAS) IFI44L: -2,15
ProbeID ILMN_1724658
  logFC(D142_PHE - D142_BAS) BNIP3: 3,47
ProbeID ILMN_1724700
  logFC(D142_PHE - D142_BAS) RIOK3: 2,40
ProbeID ILMN_1725090, PHE vs BAS
  logFC(D142_PHE - D142_BAS) CTHRC1: -2,95
ProbeID ILMN_1725139
  logFC(D142_PHE - D142_BAS) CA9: 3,69
ProbeID ILMN_1725241
  logFC(D142_PHE - D142_BAS) GSTK1: -2,02
ProbeID ILMN_1726456
  logFC(D142_PHE - D142_BAS) SLC3A2: 2,24
ProbeID ILMN_1726589
  logFC(D142_PHE - D142_BAS) CD248: -2,13
ProbeID ILMN_1727532, PHE vs BAS
  logFC(D142_PHE - D142_BAS) OLFML3: -3,25
ProbeID ILMN_1728047
  logFC(D142_PHE - D142_BAS) AKR1A1: -2,21
ProbeID ILMN_1728934, PHE vs BAS
  logFC(D142_PHE - D142_BAS) PRC1: -2,53
ProbeID ILMN_1729117
  logFC(D142_PHE - D142_BAS) COL5A2: -2,21
ProbeID ILMN_1729288
  logFC(D142_PHE - D142_BAS) C1QTNF6: -2,08
ProbeID ILMN_1731966
  logFC(D142_PHE - D142_BAS) LEPR: -2,03
ProbeID ILMN_1732612
  logFC(D142_PHE - D142_BAS) SHB: 2,06
ProbeID ILMN_1733094, PHE vs BAS
  logFC(D142_PHE - D142_BAS) STEAP1: -2,54
ProbeID ILMN_1733110
  logFC(D142_PHE - D142_BAS) RASSF7: 2,83
ProbeID ILMN_1733756, PHE vs BAS
  logFC(D142_PHE - D142_BAS) COL12A1: -3,95
ProbeID ILMN_1736670
  logFC(D142_PHE - D142_BAS) PPP1R3C: 2,44
ProbeID ILMN_1738116, PHE vs BAS
  logFC(D142_PHE - D142_BAS) TMEM119: -4,96
ProbeID ILMN_1738552
  logFC(D142_PHE - D142_BAS) SLC1A3: -2,18
ProbeID ILMN_1738742
  logFC(D142_PHE - D142_BAS) PLAT: 2,16
ProbeID ILMN_1739496, PHE vs BAS
  logFC(D142_PHE - D142_BAS) PRRX1: -2,36
ProbeID ILMN_1739942
  logFC(D142_PHE - D142_BAS) FAM117B: 2,48
ProbeID ILMN_1740407, PHE vs BAS
  logFC(D142_PHE - D142_BAS) CHSY3: -2,57
ProbeID ILMN_1741148
  logFC(D142_PHE - D142_BAS) ALDOA: 2,28
ProbeID ILMN_1741200
  logFC(D142_PHE - D142_BAS) RFX5: -2,04
ProbeID ILMN_1741356, PHE vs BAS
  logFC(D142_PHE - D142_BAS) PRICKLE1: -2,37
ProbeID ILMN_1744487, PHE vs BAS
  logFC(D142_PHE - D142_BAS) C1QTNF5: -2,59
ProbeID ILMN_1744963
  logFC(D142_PHE - D142_BAS) ERO1L: 3,84
ProbeID ILMN_1747016
  logFC(D142_PHE - D142_BAS) CEP55: -2,01
ProbeID ILMN_1747195
  logFC(D142_PHE - D142_BAS) PSMB8: -2,24
ProbeID ILMN_1748883
  logFC(D142_PHE - D142_BAS) CDKN2D: 2,14
ProbeID ILMN_1749838
  logFC(D142_PHE - D142_BAS) MZF1: 2,45
ProbeID ILMN_1749892
  logFC(D142_PHE - D142_BAS) EGLN1: 2,72
ProbeID ILMN_1750324
  logFC(D142_PHE - D142_BAS) IGFBP5: 2,34
ProbeID ILMN_1750912
  logFC(D142_PHE - D142_BAS) STXBP6: 2,42
ProbeID ILMN_1751120
  logFC(D142_PHE - D142_BAS) HIST1H4H: 2,86
ProbeID ILMN_1751228
  logFC(D142_PHE - D142_BAS) C20orf46: 2,17
ProbeID ILMN_1752226
  logFC(D142_PHE - D142_BAS) P2RY11: 2,23
ProbeID ILMN_1752510
  logFC(D142_PHE - D142_BAS) FAM13A: 3,25
ProbeID ILMN_1754969, PHE vs BAS
  logFC(D142_PHE - D142_BAS) LMCD1: -2,67
ProbeID ILMN_1755749
  logFC(D142_PHE - D142_BAS) PGK1: 2,85
ProbeID ILMN_1755974
  logFC(D142_PHE - D142_BAS) ALDOC: 2,83
ProbeID ILMN_1756417
  logFC(D142_PHE - D142_BAS) ANKRD37: 4,25
ProbeID ILMN_1756572, PHE vs BAS
  logFC(D142_PHE - D142_BAS) COQ2: -2,49
ProbeID ILMN_1756573
  logFC(D142_PHE - D142_BAS) NDUFA4L2: 5,61
ProbeID ILMN_1756992
  logFC(D142_PHE - D142_BAS) MUC1: 2,56
ProbeID ILMN_1757877
  logFC(D142_PHE - D142_BAS) HCFC1R1: 2,05
ProbeID ILMN_1758164
  logFC(D142_PHE - D142_BAS) STC1: 4,35
ProbeID ILMN_1758623
  logFC(D142_PHE - D142_BAS) HIST1H2BD: 3,29
ProbeID ILMN_1758626
  logFC(D142_PHE - D142_BAS) IDS: 2,05
ProbeID ILMN_1758672
  logFC(D142_PHE - D142_BAS) FAM107B: 2,44
